Experimental findings from patent US12466822B2, “Heterocyclic compounds as immunomodulators” (Incyte Corporation, priority 2016, dated 2025) are described below.

In this assay the target is T1, PD-1/PD-L1 protein/protein interaction (recombinant human PD-L1 protein (19-238), recombinant human PD-1 protein (25-167)) (Homo sapiens, UniProt Q9NZQ7).
T1 construct: Recombinant human PD-L1 protein (19-238) with a His-tag at the C-terminus; purchased AcroBiosystems PD1-H5229 (PD-L1-His); PD1-H5257 (PD-1-Fc)
T1 sequence (Q9NZQ7 19-238): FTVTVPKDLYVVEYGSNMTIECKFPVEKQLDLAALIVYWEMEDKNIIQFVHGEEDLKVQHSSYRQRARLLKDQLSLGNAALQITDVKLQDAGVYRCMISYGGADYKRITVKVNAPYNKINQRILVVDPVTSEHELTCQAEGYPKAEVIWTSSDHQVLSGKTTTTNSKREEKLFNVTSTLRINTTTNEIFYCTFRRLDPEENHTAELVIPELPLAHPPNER
Kind of assay: PD-1/PD-L1 Homogeneous Time-Resolved Fluorescence (HTRF) Binding Assay. The settings on record: 25° C., PBS buffer (pH 7.4), 40 minutes preincubation with inhibitors. Summed up: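 Fc-tagged human PD-1 (25-167) and His-tagged PD-L1 (19-238), listed as […] and 10 nM final, preincubated 40 min with inhibitors in PBS pH 7.4, 0.05% Tween-20, 0.1% BSA, 1% DMSO, 25 °C. Eu anti-IgG/APC anti-His added, 60 min, 665/620 nm HTRF ratio; IC50 fitted from percent control activity.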
In general terms: Time-resolved FRET reads energy transfer from a long-lived donor to a nearby acceptor.
Turning to `Cc1c(Nc2nccc3cc(CN4CC[C@@H](O)C4)cnc23)cccc1-c1cccc(Nc2nccc3nc(CN4CC[C@@H](C(=O)O)C4)cnc23)c1C` [Example 70, (R)-1-((5-(3′-(3-(((R)-3-hydroxypyrrolidin-1-yl)methyl)-1,7-naphthyridin-8-ylamino)-2,2′-dimethylbiphenyl-3-ylamino)pyrido[4,3-b]pyrazin-2-yl)methyl)pyrrolidine-3-carboxylic acid], the IC50 (as a rule, the concentration needed to halve the response being measured) was ≤ 10 nM.

For the molecule `Cc1c(Nc2nccc3cc(CN4CC[C@@H](C(=O)O)C4)cnc23)cccc1-c1cccc(Nc2nccc3cc(C4CCCN4)cnc23)c1C` (stereo partly drawn) [Example 71, (3R)-1-((8-(2,2′-dimethyl-3′-(3-(pyrrolidin-2-yl)-1,7-naphthyridin-8-ylamino)biphenyl-3-ylamino)-1,7-naphthyridin-3-yl)methyl)pyrrolidine-3-carboxylic acid], the 50% inhibitory concentration (IC50) is ≤ 10 nM. The figure for `OCCNCc1cnc2c(Nc3cccc(-c4cccc(Nc5nccc6cc(CN7CC[C@@H](O)C7)cnc56)c4Cl)c3Cl)nccn12` [Example 72, (R)-1-((8-(2,2′-dichloro-3′-(3-((2-hydroxyethylamino)methyl)imidazo[1,2-a]pyrazin-8-ylamino)biphenyl-3-ylamino)-1,7-naphthyridin-3-yl)methyl)pyrrolidin-3-ol] is ≤ 10 nM; for `Cc1c(Nc2nccc3cc(CN4CCCC4)cnc23)cccc1-c1cccc(Nc2nccc3cc(CN4CC[C@@H](O)C4)cnc23)c1C` [Example 73, (R)-1-((8-((2,2′-dimethyl-3′-((3-(pyrrolidin-1-ylmethyl)-1,7-naphthyridin-8-yl)amino)-[1,1′-biphenyl]-3-yl)amino)-1,7-naphthyridin-3-yl)methyl)pyrrolidin-3-ol] it is ≤ 10 nM; for `Cc1c(Nc2nccc3cc(CN4CC[C@H](O)C4)cnc23)cccc1-c1cccc(Nc2nccc3cc(CN4CC[C@@H](O)C4)cnc23)c1Cl` [Example 74, (S)-1-((8-((2′-chloro-3′-((3-(((R)-3-hydroxypyrrolidin-1-yl)methyl)-1,7-naphthyridin-8-yl)amino)-2-methyl-[1,1′-biphenyl]-3-yl)amino)-1,7-naphthyridin-3-yl)methyl)pyrrolidin-3-ol] it is ≤ 10 nM. As to `Cc1c(Nc2nccc3cc(CN4CC(C(=O)O)C4)cnc23)cccc1-c1cccc(Nc2nccc3cc(CN4CC[C@@H](O)C4)cnc23)c1Cl` [Example 75, (R)-1-((8-((2′-chloro-3′-((3-((3-hydroxypyrrolidin-1-yl)methyl)-1,7-naphthyridin-8-yl)amino)-2-methyl-[1,1′-biphenyl]-3-yl)amino)-1,7-naphthyridin-3-yl)methyl)azetidine-3-carboxylic acid], the IC50 is ≤ 10 nM. The figure for `C[C@@]1(O)CCN(Cc2cnc3c(Nc4cccc(-c5cccc(Nc6nccc7cc(CN8CC[C@@H](O)C8)cnc67)c5Cl)c4Cl)nccc3c2)C1` [Example 76, (R)-1-((8-((2,2′-dichloro-3′-((3-(((R)-3-hydroxypyrrolidin-1-yl)methyl)-1,7-naphthyridin-8-yl)amino)-[1,1′-biphenyl]-3-yl)amino)-1,7-naphthyridin-3-yl)methyl)-3-methylpyrrolidin-3-ol] is ≤ 10 nM; for `OCCNCc1cnc2c(Nc3cccc(-c4cccc(Nc5nccc6cc(CN7CC[C@@H](O)C7)cnc56)c4Cl)c3Cl)nccc2c1` [Example 77, (R)-1-((8-((2,2′-dichloro-3′-((3-(((2-hydroxyethyl)amino)methyl)-1,7-naphthyridin-8-yl)amino)-[1,1′-biphenyl]-3-yl)amino)-1,7-naphthyridin-3-yl)methyl)pyrrolidin-3-ol] it is ≤ 10 nM. `O=C(O)[C@@H]1CCN(Cc2cnc3c(Nc4cccc(-c5cccc(Nc6nccc7cc(CN8CC[C@@H](O)C8)cnc67)c5Cl)c4Cl)nccc3c2)C1` [Example 78, (R)-1-((8-((2,2′-dichloro-3′-((3-(((R)-3-hydroxypyrrolidin-1-yl)methyl)-1,7-naphthyridin-8-yl)amino)-[1,1′-biphenyl]-3-yl)amino)-1,7-naphthyridin-3-yl)methyl)pyrrolidine-3-carboxylic acid]: the IC50 was ≤ 10 nM.

As to `Cc1c(Nc2nccc3cc(CN4CC[C@@H](O)C4)cnc23)cccc1-c1cccc(Nc2nccc3cc(CN4CC[C@@H](C(=O)O)C4)cnc23)c1Cl` [Example 79, (R)-1-((8-((2-chloro-3′-((3-(((R)-3-hydroxypyrrolidin-1-yl)methyl)-1,7-naphthyridin-8-yl)amino)-2′-methyl-[1,1′-biphenyl]-3-yl)amino)-1,7-naphthyridin-3-yl)methyl)pyrrolidine-3-carboxylic acid], the IC50 is ≤ 10 nM. The figure for `Cc1c(Nc2nccc3cc(CN4CC[C@@H](O)C4)cnc23)cccc1-c1cccc(Nc2nccc3cc(CN4CC(C(=O)O)C4)cnc23)c1Cl` [Example 80, (R)-1-((8-((2-chloro-3′-((3-((3-hydroxypyrrolidin-1-yl)methyl)-1,7-naphthyridin-8-yl)amino)-2′-methyl-[1,1′-biphenyl]-3-yl)amino)-1,7-naphthyridin-3-yl)methyl)azetidine-3-carboxylic acid] is ≤ 10 nM; for `Cc1c(Nc2nccc3cc(CN4CC[C@@H](O)C4)cnc23)cccc1-c1cccc(Nc2nccc3cc(CNCCC(=O)O)cnc23)c1Cl` [Example 81, (R)-3-(((8-((2-chloro-3′-((3-((3-hydroxypyrrolidin-1-yl)methyl)-1,7-naphthyridin-8-yl)amino)-2′-methyl-[1,1′-biphenyl]-3-yl)amino)-1,7-naphthyridin-3-yl)methyl)amino)propanoic acid] it is ≤ 10 nM; for `O=C(O)[C@@H]1CCN(Cc2cnc3c(Nc4cccc(-c5cccc(Nc6nccc7cc(CN8CC[C@H](O)C8)cnc67)c5Cl)c4Cl)nccc3c2)C1` [Example 82, (R)-1-((8-((2,2′-dichloro-3′-((3-(((S)-3-hydroxypyrrolidin-1-yl)methyl)-1,7-naphthyridin-8-yl)amino)-[1,1′-biphenyl]-3-yl)amino)-1,7-naphthyridin-3-yl)methyl)pyrrolidine-3-carboxylic acid] it is ≤ 10 nM. The figure for `O=C(O)[C@H]1CCN(Cc2cnc3c(Nc4cccc(-c5cccc(Nc6nccc7cc(CN8CC[C@H](O)C8)cnc67)c5Cl)c4Cl)nccc3c2)C1` [Example 83, (S)-1-((8-((2,2′-dichloro-3′-((3-(((S)-3-hydroxypyrrolidin-1-yl)methyl)-1,7-naphthyridin-8-yl)amino)-[1,1′-biphenyl]-3-yl)amino)-1,7-naphthyridin-3-yl)methyl)pyrrolidine-3-carboxylic acid] is ≤ 10 nM; for `Cc1c(Nc2nccc3cc(CN4CC[C@@H](C(=O)O)C4)cnc23)cccc1-c1cccc(-c2nc3c(o2)CN(C(=O)CN(C)C)C3)c1C` [Example 84, (R)-1-((8-((3′-(5-(dimethylglycyl)-5,6-dihydro-4H-pyrrolo[3,4-d]oxazol-2-yl)-2,2′-dimethyl-[1,1′-biphenyl]-3-yl)amino)-1,7-naphthyridin-3-yl)methyl)pyrrolidine-3-carboxylic acid] it is ≤ 10 nM; for `Cc1c(Nc2nccc3cc(CN4CC[C@@H](C(=O)O)C4)cnc23)cccc1-c1cccc(-c2nc3c(s2)CN(C(=O)CN(C)C)C3)c1C` [Example 85, (R)-1-((8-((3′-(5-(dimethylglycyl)-5,6-dihydro-4H-pyrrolo[3,4-d]thiazol-2-yl)-2,2′-dimethyl-[1,1′-biphenyl]-3-yl)amino)-1,7-naphthyridin-3-yl)methyl)pyrrolidine-3-carboxylic acid] it is ≤ 10 nM. The figure for `Cc1c(Nc2nccc3cc(CN4CC[C@@H](O)C4)cnc23)cccc1-c1cccc(-c2nc3c(s2)CN(C(=O)CN2CC[C@@H](O)C2)C3)c1C` [Example 86, 2-((R)-3-hydroxypyrrolidin-1-yl)-1-(2-(3′-((3-(((R)-3-hydroxypyrrolidin-1-yl)methyl)-1,7-naphthyridin-8-yl)amino)-2,2′-dimethyl-[1,1′-biphenyl]-3-yl)-4,6-dihydro-5H-pyrrolo[3,4-d]thiazol-5-yl)ethan-1-one] is ≤ 10 nM. As to `Cc1c(Nc2nccc3cc(CN4CC[C@@](C)(C(=O)O)C4)cnc23)cccc1-c1cccc(-c2nc3c(s2)CN(C(=O)CN(C)C)C3)c1C` [Example 87, (R)-1-((8-((3′-(5-(dimethylglycyl)-5,6-dihydro-4H-pyrrolo[3,4-d]thiazol-2-yl)-2,2′-dimethyl-[1,1′-biphenyl]-3-yl)amino)-1,7-naphthyridin-3-yl)methyl)-3-methylpyrrolidine-3-carboxylic acid], the IC50 was ≤ 10 nM.

Consider `Cc1c(Nc2nccc3cc(CN4CC(C(=O)O)C4)cnc23)cccc1-c1cccc(-c2nc3c(s2)CN(C(=O)CN(C)C)C3)c1C` [Example 88, 1-((8-((3′-(5-(dimethylglycyl)-5,6-dihydro-4H-pyrrolo[3,4-d]thiazol-2-yl)-2,2′-dimethyl-[1,1′-biphenyl]-3-yl)amino)-1,7-naphthyridin-3-yl)methyl)azetidine-3-carboxylic acid], for which the IC50 was ≤ 10 nM. The figure for `Cc1c(-c2nc3c(s2)CN(C(=O)CN(C)C)C3)cccc1-c1cccc(Nc2nccc3cc(CN4CC[C@@H](C(=O)O)C4)cnc23)c1Cl` [Example 89, (R)-1-((8-((2-chloro-3′-(5-(dimethylglycyl)-5,6-dihydro-4H-pyrrolo[3,4-d]thiazol-2-yl)-2′-methyl-[1,1′-biphenyl]-3-yl)amino)-1,7-naphthyridin-3-yl)methyl)pyrrolidine-3-carboxylic acid] is ≤ 10 nM. The figure for `CCN(C)CC(=O)N1Cc2nc(-c3cccc(-c4cccc(Nc5nccc6cc(CN7CC[C@@H](C(=O)O)C7)cnc56)c4Cl)c3C)sc2C1` [Example 90, (R)-1-((8-((2-chloro-3′-(5-(N-ethyl-N-methylglycyl)-5,6-dihydro-4H-pyrrolo[3,4-d]thiazol-2-yl)-2′-methyl-[1,1′-biphenyl]-3-yl)amino)-1,7-naphthyridin-3-yl)methyl)pyrrolidine-3-carboxylic acid] is ≤ 10 nM.
